Measured values as given in paper PMC6576746, “Rational discovery of dual-indication multi-target PDE/Kinase inhibitor for precision anti-cancer therapy using structural systems pharmacology” (PLoS Computational Biology, 2019).

Experiments:
Assay in all cases: biochemical
Set-up in all cases: DiscoverX KinomeScan competition binding assay across human kinases; per cent of control at 10 and 100 uM
MET = MET (Homo sapiens, UniProt P08581); conditions: competition binding, % of control; read-out: Percent Control (100 uM Levosimendan)
In short: (§1)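 Binding is expressed as %control, normalised between positive and negative control signals. The compound (levosimendan) was tested at 10 μM and 100 μM in the DiscoverX KinomeScan competition binding format against human kinases.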

PIKFYVE = PIKFYVE (Homo sapiens, UniProt Q9Y2I7); conditions: competition binding, % of control; read-out: Percent Control (100 uM Levosimendan)
In short: as §1

SNARK = target: T1, SNARK (Homo sapiens, UniProt Q9H093); conditions: competition binding, % of control; read-out: Percent Control (100 uM Levosimendan)
T1 construct: gene NUAK2
In short: as §1

CSNK1G1 = CSNK1G1 (Homo sapiens, UniProt Q9HCP0); conditions: competition binding, % of control; read-out: Percent Control (100 uM Levosimendan)
In short: as §1

TRKB = target: T2, TRKB (Homo sapiens, UniProt Q16620); conditions: competition binding, % of control; read-out: Percent Control (100 uM Levosimendan)
T2 construct: gene NTRK2
In short: as §1

BMPR2 = BMPR2 (Homo sapiens, UniProt Q13873); conditions: competition binding, % of control; read-out: Percent Control (100 uM Levosimendan)
In short: as §1

MAP3K15 = MAP3K15 (Homo sapiens, UniProt Q6ZN16); conditions: competition binding, % of control; read-out: Percent Control (100 uM Levosimendan)
In short: as §1

ERBB3 = ERBB3 (Homo sapiens, UniProt P21860); conditions: competition binding, % of control; read-out: Percent Control (100 uM Levosimendan)
In short: as §1

CDK4-cyclinD1 = target: T3, CDK4-cyclinD1 (Homo sapiens, UniProt P11802); conditions: competition binding, % of control; read-out: Percent Control (100 uM Levosimendan)
T3 construct: cyclinD1
In short: as §1

MEK6 = target: T4, MEK6 (Homo sapiens, UniProt P52564); conditions: competition binding, % of control; read-out: Percent Control (100 uM Levosimendan)
T4 construct: gene MAP2K6
In short: as §1

FYN = FYN (Homo sapiens, UniProt P06241); conditions: competition binding, % of control
In short: as §1

TSSK3 = TSSK3 (Homo sapiens, UniProt Q96PN8); conditions: competition binding, % of control; read-out: Percent Control (100 uM Levosimendan)
In short: as §1

DRAK1 = target: T5, DRAK1 (Homo sapiens, UniProt Q9UEE5); conditions: competition binding, % of control
T5 construct: gene STK17A
In short: as §1

p38-alpha = target: T6, p38-alpha (Homo sapiens, UniProt Q16539); conditions: competition binding, % of control; read-out: Percent Control (100 uM Levosimendan)
T6 construct: gene MAPK14
In short: as §1

RET = RET (Homo sapiens, UniProt P07949); conditions: competition binding, % of control; read-out: Percent Control (100 uM Levosimendan)
In short: as §1

CAMK2D = CAMK2D (Homo sapiens, UniProt Q13557); conditions: competition binding, % of control; read-out: Percent Control (100 uM Levosimendan)
In short: as §1

PYK2 = target: T7, PYK2 (Homo sapiens, UniProt Q14289); conditions: competition binding, % of control; read-out: Percent Control (100 uM Levosimendan)
T7 construct: gene PTK2B
In short: as §1

CLK2 = CLK2 (Homo sapiens, UniProt P49760); conditions: competition binding, % of control; read-out: Percent Control (100 uM Levosimendan)
In short: as §1

[1] = target: T8, ABL1(F317L)-nonphosphorylated (Homo sapiens, UniProt P00519, F317L); conditions: competition binding, % of control; read-out: Percent Control (100 uM Levosimendan)
T8 construct: nonphosphorylated
In short: as §1

[2] = read-out: Percent Control (10 uM Levosimendan)
[3] = read-out: Percent Control (100 uM Levosimendan)

T5 sequence (Q9UEE5 whole entry): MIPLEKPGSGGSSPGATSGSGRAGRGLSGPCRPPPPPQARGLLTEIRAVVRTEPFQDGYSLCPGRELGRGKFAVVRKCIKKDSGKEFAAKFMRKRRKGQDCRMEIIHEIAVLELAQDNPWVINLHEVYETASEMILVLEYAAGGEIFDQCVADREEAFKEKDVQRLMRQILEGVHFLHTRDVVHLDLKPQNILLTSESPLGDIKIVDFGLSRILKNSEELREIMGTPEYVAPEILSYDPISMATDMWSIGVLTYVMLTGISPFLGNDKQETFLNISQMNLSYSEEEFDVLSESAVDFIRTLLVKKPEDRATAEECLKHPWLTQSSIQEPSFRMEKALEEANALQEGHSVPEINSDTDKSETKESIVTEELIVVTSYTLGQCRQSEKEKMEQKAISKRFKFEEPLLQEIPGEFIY
Chain of FYN (P06241 whole entry): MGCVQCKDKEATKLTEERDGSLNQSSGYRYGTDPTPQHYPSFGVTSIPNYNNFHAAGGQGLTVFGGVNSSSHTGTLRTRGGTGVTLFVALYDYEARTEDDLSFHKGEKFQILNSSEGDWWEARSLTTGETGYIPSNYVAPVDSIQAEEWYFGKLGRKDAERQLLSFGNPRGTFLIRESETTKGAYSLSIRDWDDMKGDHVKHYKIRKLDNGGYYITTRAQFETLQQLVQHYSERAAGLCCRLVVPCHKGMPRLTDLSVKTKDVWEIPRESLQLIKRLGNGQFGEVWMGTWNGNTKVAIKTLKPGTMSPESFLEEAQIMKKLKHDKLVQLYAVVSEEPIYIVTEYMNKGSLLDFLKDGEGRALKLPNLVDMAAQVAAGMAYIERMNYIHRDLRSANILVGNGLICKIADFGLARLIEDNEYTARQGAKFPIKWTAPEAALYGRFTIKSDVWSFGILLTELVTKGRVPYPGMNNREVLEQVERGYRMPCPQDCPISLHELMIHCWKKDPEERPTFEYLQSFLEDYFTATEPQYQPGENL
T7 sequence (Q14289 whole entry): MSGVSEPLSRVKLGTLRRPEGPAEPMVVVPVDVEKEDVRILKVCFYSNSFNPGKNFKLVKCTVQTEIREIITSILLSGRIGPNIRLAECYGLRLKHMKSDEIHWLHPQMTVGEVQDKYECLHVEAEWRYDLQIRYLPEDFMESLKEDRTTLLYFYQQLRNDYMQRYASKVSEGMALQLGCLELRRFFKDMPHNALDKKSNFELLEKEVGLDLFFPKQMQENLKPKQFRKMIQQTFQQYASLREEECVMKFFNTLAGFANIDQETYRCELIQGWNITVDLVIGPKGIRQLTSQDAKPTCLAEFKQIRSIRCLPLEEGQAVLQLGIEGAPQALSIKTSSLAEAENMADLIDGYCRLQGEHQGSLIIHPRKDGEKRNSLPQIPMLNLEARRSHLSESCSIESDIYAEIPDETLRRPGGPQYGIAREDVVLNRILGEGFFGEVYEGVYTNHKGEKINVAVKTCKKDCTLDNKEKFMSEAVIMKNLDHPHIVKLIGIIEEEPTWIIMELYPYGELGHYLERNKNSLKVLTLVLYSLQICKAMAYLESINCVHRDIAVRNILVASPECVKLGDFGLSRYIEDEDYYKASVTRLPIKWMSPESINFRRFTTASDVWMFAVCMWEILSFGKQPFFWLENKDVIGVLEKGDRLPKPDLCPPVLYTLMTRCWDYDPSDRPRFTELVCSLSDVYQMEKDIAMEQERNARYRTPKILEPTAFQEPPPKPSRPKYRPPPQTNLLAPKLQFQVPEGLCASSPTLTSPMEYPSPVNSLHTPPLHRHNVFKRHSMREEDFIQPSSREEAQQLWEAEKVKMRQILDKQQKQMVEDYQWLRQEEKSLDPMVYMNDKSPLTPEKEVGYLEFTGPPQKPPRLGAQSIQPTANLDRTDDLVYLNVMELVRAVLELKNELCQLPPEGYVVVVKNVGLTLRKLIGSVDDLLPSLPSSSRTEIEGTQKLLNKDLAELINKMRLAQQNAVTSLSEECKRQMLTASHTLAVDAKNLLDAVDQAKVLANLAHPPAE
T1 sequence (Q9H093 whole entry): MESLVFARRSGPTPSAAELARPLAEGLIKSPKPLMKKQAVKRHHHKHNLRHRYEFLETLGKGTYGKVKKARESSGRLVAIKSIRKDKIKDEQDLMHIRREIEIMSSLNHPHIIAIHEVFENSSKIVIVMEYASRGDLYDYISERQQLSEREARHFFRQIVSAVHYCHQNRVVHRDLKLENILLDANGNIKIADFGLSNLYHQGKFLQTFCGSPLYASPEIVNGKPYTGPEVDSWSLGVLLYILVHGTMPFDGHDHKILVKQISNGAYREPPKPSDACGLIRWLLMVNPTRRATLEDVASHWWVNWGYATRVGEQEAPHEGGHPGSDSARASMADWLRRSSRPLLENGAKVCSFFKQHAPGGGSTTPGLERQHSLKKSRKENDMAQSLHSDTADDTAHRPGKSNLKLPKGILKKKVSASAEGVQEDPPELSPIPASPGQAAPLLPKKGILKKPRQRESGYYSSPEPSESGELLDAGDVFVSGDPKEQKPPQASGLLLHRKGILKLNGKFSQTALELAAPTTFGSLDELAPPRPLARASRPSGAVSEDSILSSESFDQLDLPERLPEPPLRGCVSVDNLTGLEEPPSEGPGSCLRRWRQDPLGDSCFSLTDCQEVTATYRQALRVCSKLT
T2 sequence (Q16620 whole entry): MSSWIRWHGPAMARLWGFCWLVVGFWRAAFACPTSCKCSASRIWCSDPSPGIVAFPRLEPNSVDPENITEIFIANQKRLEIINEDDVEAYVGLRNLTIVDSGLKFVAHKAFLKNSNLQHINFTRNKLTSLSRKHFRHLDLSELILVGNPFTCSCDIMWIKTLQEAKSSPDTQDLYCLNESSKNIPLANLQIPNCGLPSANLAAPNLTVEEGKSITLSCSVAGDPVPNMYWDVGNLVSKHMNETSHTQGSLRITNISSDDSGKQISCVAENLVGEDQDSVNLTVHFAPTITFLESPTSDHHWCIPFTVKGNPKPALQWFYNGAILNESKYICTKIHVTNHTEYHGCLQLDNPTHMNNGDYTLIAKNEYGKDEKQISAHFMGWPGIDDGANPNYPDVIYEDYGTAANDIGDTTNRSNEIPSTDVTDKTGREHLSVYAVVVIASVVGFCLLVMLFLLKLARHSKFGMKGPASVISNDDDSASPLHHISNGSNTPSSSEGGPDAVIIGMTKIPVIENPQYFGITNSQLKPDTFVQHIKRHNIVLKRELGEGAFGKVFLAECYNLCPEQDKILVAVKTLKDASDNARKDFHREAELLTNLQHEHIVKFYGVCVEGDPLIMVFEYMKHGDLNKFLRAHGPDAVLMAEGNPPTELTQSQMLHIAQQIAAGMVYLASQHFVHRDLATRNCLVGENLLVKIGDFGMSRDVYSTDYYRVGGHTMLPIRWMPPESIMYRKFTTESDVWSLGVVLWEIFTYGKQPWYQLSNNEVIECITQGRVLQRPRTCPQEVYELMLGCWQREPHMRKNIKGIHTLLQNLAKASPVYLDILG
Chain of CLK2 (P49760 whole entry): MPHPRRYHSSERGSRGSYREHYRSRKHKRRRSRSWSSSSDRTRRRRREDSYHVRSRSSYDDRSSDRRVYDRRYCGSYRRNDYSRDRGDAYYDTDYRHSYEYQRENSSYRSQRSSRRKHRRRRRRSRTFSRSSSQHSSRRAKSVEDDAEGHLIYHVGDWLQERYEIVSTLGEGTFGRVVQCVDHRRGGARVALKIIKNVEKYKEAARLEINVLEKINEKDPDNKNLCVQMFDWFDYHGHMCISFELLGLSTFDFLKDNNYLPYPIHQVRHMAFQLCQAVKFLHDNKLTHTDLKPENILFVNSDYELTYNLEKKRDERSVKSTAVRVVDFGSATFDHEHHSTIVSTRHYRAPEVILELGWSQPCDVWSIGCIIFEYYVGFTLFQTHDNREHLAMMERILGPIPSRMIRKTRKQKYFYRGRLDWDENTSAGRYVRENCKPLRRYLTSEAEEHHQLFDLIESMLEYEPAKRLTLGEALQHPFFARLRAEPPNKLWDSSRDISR
Chain of RET (P07949 whole entry): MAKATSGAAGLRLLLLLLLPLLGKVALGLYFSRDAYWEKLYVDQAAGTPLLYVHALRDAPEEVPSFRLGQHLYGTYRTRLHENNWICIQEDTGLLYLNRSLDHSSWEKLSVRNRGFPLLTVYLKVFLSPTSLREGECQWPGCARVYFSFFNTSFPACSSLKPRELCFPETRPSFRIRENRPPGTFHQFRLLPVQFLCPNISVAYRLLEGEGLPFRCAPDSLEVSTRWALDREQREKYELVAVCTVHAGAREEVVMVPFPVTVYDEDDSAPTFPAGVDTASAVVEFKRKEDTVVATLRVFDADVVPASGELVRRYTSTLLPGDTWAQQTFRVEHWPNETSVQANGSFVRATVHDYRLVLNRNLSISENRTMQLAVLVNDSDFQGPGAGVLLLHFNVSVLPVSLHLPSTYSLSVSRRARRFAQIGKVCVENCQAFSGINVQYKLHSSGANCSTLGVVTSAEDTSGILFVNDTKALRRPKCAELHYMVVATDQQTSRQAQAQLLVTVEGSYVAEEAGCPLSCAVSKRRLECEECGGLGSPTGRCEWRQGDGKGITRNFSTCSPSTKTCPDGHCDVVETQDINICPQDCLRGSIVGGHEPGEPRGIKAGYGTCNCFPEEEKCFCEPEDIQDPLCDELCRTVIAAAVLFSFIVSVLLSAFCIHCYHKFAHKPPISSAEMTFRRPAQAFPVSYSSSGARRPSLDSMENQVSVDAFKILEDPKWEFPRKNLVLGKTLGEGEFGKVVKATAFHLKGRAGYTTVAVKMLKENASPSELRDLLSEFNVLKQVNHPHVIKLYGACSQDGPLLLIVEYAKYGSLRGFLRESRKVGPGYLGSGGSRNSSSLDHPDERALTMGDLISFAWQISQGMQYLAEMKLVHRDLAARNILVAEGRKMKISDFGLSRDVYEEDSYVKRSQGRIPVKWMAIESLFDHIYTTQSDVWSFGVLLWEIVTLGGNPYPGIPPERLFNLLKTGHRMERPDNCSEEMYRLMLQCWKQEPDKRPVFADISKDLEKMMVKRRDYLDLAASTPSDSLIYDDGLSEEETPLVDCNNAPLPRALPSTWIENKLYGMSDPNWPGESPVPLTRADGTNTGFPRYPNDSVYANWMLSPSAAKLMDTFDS

C[C@@H]1CC(=O)NN=C1c1ccc(NN=C(C#N)C#N)cc1 [levosimendan]
remaining binding at 100 µM (MET): 55% | remaining binding at 100 µM (PIKFYVE): 57% | remaining binding at 100 µM (SNARK): 100% | remaining binding at 100 µM (CSNK1G1): 78% | remaining binding at 100 µM (TRKB): 81% | remaining binding at 100 µM (BMPR2): 100% | remaining binding at 100 µM (MAP3K15): 100% | remaining binding at 100 µM (ERBB3): 75% | remaining binding at 100 µM (CDK4-cyclinD1): 84% | remaining binding at 100 µM (MEK6): 100% | remaining binding at 10 µM (FYN; [2]): 96% | remaining binding at 100 µM (FYN; [3]): 47% | remaining binding at 100 µM (TSSK3): 100% | remaining binding at 10 µM (DRAK1; [2]): 87% | remaining binding at 100 µM (DRAK1; [3]): 22% | remaining binding at 100 µM (p38-alpha): 97% | remaining binding at 100 µM (RET): 88% | remaining binding at 100 µM (CAMK2D): 87% | remaining binding at 100 µM (PYK2): 93% | remaining binding at 100 µM (CLK2): 69% | remaining binding at 100 µM [1]: 100%
